We go through 2 compounds from paper PMC5934274 (Journal of medicinal chemistry, 2016).

Like-named read-outs stand apart in the source and are kept apart here. Bounds are passed on as bounds.

Test [1] concerns PARP1. Briefly: In vitro ADP-ribosylation assay, PARP1. The format is biochemical, human. Conditions: selectivity toward PARP1 and -2 over other PARP family members.
Test [2] has as its target T1, PARP16 (Homo sapiens, UniProt Q8N5Y8).
T1 sequence (Q8N5Y8 1-322): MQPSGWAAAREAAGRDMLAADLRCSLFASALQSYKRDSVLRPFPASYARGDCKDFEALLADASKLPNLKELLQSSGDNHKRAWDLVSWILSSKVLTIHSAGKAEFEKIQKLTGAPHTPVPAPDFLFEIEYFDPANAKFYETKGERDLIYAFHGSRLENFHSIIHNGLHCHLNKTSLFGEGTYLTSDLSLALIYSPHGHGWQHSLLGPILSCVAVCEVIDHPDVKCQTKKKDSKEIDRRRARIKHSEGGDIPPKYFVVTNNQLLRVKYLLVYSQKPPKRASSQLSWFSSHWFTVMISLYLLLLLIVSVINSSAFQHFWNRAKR
Conditions: read-out: KM NAD+ (literature); PARP16 FL row; cited from earlier work.

Test [3] concerns PARP1. As to conditions: read-out: KM NAD+ (literature), cited from earlier work.
In test [4] the target is T2, PARP10 (Homo sapiens, UniProt Q53GL7).
T2 sequence (Q53GL7 1-1025): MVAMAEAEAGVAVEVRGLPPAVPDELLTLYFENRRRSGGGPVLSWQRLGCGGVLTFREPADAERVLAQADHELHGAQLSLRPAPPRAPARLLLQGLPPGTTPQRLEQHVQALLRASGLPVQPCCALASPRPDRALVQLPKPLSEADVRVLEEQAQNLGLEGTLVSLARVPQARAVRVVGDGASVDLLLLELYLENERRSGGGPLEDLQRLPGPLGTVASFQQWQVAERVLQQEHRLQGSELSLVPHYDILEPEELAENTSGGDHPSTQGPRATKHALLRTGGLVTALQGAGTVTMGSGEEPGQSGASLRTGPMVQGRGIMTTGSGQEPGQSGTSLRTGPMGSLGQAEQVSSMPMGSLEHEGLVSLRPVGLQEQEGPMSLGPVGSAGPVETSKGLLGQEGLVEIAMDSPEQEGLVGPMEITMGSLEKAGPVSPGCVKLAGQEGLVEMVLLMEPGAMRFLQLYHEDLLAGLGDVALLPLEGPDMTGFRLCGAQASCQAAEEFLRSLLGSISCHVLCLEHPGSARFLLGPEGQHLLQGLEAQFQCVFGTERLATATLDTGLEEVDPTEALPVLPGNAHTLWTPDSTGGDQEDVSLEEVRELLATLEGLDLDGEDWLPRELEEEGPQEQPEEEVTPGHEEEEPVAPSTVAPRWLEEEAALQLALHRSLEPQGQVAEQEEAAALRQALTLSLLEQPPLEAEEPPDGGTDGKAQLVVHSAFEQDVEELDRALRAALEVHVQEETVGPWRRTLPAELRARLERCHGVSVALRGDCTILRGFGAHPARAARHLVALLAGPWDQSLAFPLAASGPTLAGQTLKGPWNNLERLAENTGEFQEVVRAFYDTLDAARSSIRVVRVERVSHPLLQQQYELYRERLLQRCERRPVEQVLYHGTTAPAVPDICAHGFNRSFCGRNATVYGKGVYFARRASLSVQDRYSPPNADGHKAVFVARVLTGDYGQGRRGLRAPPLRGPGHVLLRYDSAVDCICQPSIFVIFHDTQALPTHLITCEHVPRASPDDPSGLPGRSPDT
Conditions: read-out: KM NAD+ (literature); PARP10 FL row; cited from earlier work.

Test [5] concerns PARP2. Conditions: read-out: KM NAD+ (literature); PARP2 FL row; cited from earlier work.
In test [6] the target is PARP14 (Homo sapiens, UniProt Q460N5). Briefly: In vitro ADP-ribosylation assay, PARP14. The format is biochemical. Conditions: read-out: KM NAD+; PARP14 ART.
PARP14, sequence (Q460N5 whole entry): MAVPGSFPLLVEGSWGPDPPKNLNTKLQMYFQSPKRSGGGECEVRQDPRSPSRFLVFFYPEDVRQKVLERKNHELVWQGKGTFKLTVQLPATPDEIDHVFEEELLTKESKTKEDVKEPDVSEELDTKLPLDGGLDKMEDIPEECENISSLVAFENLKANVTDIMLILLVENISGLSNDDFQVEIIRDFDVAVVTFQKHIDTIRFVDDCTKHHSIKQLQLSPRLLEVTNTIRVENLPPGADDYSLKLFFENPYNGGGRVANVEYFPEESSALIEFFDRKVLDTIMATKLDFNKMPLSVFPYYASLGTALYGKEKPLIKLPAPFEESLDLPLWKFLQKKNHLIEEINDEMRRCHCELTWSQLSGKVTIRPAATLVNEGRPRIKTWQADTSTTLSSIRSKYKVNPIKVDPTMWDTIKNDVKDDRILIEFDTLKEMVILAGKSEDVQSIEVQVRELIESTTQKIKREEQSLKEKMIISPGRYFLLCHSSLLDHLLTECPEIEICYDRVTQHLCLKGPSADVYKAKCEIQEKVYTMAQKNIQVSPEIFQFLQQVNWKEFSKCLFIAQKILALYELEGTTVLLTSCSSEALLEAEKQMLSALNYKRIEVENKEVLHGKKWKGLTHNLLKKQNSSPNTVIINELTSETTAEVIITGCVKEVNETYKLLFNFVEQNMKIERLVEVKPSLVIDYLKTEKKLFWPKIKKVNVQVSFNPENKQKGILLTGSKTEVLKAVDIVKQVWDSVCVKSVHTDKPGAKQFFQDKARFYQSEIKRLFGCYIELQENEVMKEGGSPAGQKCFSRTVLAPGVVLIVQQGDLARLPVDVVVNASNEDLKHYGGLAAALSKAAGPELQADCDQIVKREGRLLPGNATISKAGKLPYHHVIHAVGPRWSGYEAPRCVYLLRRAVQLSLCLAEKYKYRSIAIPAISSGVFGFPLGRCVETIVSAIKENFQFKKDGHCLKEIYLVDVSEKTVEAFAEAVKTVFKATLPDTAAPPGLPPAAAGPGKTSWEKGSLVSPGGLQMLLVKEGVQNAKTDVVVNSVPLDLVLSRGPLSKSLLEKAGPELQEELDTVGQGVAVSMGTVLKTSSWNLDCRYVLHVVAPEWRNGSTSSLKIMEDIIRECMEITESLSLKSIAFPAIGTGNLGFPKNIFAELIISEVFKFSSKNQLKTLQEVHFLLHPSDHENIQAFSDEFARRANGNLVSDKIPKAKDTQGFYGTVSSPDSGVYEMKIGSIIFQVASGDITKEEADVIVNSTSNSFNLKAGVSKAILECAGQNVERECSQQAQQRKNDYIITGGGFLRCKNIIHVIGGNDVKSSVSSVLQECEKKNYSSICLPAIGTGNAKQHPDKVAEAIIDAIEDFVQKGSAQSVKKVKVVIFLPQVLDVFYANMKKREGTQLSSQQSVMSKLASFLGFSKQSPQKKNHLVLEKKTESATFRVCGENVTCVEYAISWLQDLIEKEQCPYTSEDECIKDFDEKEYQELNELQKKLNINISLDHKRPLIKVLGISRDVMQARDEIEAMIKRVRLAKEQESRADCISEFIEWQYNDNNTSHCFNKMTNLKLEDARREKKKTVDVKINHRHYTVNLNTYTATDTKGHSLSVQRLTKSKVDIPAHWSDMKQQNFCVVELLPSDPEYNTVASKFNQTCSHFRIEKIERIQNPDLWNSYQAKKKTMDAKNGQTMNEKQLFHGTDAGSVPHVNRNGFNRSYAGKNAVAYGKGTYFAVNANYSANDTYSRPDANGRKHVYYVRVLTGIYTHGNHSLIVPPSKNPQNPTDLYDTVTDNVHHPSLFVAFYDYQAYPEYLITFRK

On to `C[C@]1(c2nc3c(C(N)=O)cccc3[nH]2)CCCN1` [Veliparib], for which the “IC50 values for PARP1 and -2 lower than those for other family members” value in test [1] was > 100 fold.
In general, Km refers to the substrate concentration at which the rate is half of its maximum. Regarding `NC(=O)c1ccc[n+]([C@@H]2O[C@H](COP(=O)([O-])OP(=O)(O)OC[C@H]3O[C@@H](n4cnc5c(N)ncnc54)[C@H](O)[C@@H]3O)[C@@H](O)[C@H]2O)c1` [NAD+, nicotinamide adenine dinucleotide], the Km in test [2] was 280 µM; in test [3] (PARP1 ART row), 30 to 130 µM; in test [3] (PARP1 FL row) it was 50 µM; in test [4], 50 µM; in test [5] it was 130 µM; in test [6], 62 ± 7 µM.
